# Measured values reported in patent publication US20090298942A1, “ANIMAL COMPOSITION” (priority 2002, published 2009).
# Tested on: dogs
# Test: Example 2: success at learning the discrimination task (Test B) after twenty two days on the assigned diet
# Format: in vivo
# Conditions: 0.3% amino acid added to control food product with approximately 2% leucine
# Description: The baseline learning capability of each dog was determined in a discrimination task (Test A) allowing the dogs to be divided into two groups, slow and fast learners. The slow and fast learners were randomly assigned to diet A, B, C or D. Dogs remained on their assigned diet for a period of twenty two days and their learning capability was then re evaluated with another discrimination task (Test B). The time to successfully learn the discrimination task, the total number of discrimination attempts, and the proportion of correct responses by each dog was recorded.
# Test B was introduced in stages in a similar way to Test A. Again each dog was in the test area for up to an hour depending on the length of time that it took for the dog to complete the task.
# Stage 1 The food preference test was repeated where necessary.
# Stage 2 The dog was taken down the side of each box and encouraged to enter the food drop area from the rear by throwing food forward into the area.
# Stage 3 The handler stood in front of one of the boxes and encouraged the dog to go down the side and into the box on its own. As its head reached the end of the entrance passage food was dropped by hand over the front panel into the area. This was repeated at random with both boxes.
# Stage 4 The dog was placed centrally about 2.5 m back from the boxes and a red light was activated. The handler walked forward towards the light encouraging the dog to go forward along the side passage and into the box alone where a food pellet was dropped through the hatch as the dog's head reached the end of the entrance passage.
# Stage 5 The dog was placed centrally approximately 3 m away from the equipment. A light was activated and the dog allowed time to scan the equipment. The dog was then released to make its own decision about which box to approach. If and when it entered the correct box a food pellet was dropped into the area.
# These five introductory stages took, on average, 20 minutes, depending on the initial reaction of the dog to the surroundings. […]
row,SMILES,improvement in canine learning
1,CC(C)C[C@H](N)C(=O)O [leucine],measurable improvement in canine learning
2,N[C@@H](Cc1c[nH]c2ccccc12)C(=O)O [tryptophan],Statistically significant improvements in canine learning were not demonstrated
3,CC[C@H](C)[C@H](N)C(=O)O [isoleucine],Statistically significant improvements in canine learning were not demonstrated
